#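 Interpolation was linear, between the two tested concentrations surrounding the appropriate level; five concentrations were tested over 48 hours in 96-well plates. GI50 = concentration required for 50% inhibition of growth. Definition used: TGI = concentration required for complete inhibition of growth.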
# What was measured:
# Assay in all cases: NCI tumour cell line growth inhibition, 48 h
# [1] = system: MALME-3M melanoma
# [2] = system: SK-OV-3 ovarian
# [3] = system: MCF7 breast
# [4] = system: A549 NSCLC
# [5] = system: HCC-2998 colon
# [6] = system: M14 melanoma
# [7] = system: A498 renal
# [8] = system: MDA-MB-231 breast
# [9] = system: SK-MEL-28 melanoma
# [10] = system: HOP-92 NSCLC
SMILES,GI50 [1] [µM],TGI [1] [µM],GI50 [2] [µM],TGI [2] [µM],GI50 [3] [µM],TGI [3] [µM],GI50 [4] [µM],TGI [4] [µM],GI50 [5] [µM],TGI [5] [µM],GI50 [6] [µM],TGI [6] [µM],GI50 [7] [µM],TGI [7] [µM],GI50 [8] [µM],TGI [8] [µM],GI50 [9] [µM],TGI [9] [µM],GI50 [10] [µM],TGI [10] [µM]
CN1C(=O)CNC(=O)[C@H](NC(=O)c2nc3ccccc3cc2O)CSSC[C@H]1C(=O)NCCc1nc2ccccc2cc1O,15.8,44.1,> 100,> 100,6.23,27.4,32.5,> 100,15.7,> 75.9,1.03,35.4,> 100,> 100,5.42,27.7,8.07,35,> 100,> 100
O=C1/C(=C/c2ccccc2Cl)N=C(c2ccccc2)N1Cc1ccco1,16.6,36,> 100,> 100,18.3,> 100,27.7,> 100,43.2,> 100,18.6,38.2,24.3,76.6,19.7,> 100,44.7,> 100,51.9,> 100
ClCCN(CCCl)c1ccc(-n2cnc3c(Cl)ncnc32)cc1,2.17,4.41,11,22.9,3.68,15.1,12.5,29.7,1.84,3.41,1.96,3.88,11.9,24.5,3.28,11.1,1.94,3.64,10.9,26.1
CC(=O)/C=C/C1=C(c2cc3ccccc3s2)c2ccccc2CC1,26.6,58.4,67.9,> 100,5.27,> 100,33,> 100,22.7,50.2,15.1,31.3,28.9,58.1,26.2,88.2,20.9,54.1,14.8,62.6
CCC(Sc1nnc2c3ccccc3n(CC)c2n1)C(=O)Nc1ccccc1OC (stereo not drawn),> 100,> 100,> 100,> 100,> 89.9,> 100,6.4,> 100,> 100,> 100,> 100,> 100,2.2,6.77,52.5,> 100,> 100,> 100,65.5,> 100
COc1cc(CSc2nc3ccc(C)cc3c(=O)n2Cc2ccccc2)cc(OC)c1OC,3.09,34.3,2.86,17.8,0.587,22.8,1.72,> 100,3.96,> 100,3.08,> 100,2.14,12.4,3.26,> 100,2.99,96.8,1.44,7.42
COCCOC(=O)C1=C(C)NC2=C(C(=O)CC(c3ccccc3OC)C2)C1c1cccc(O)c1 (stereo not drawn),13.9,47.6,7.77,32.5,4.31,72.4,13.1,> 72.2,12.2,27,11.8,39.5,10.2,25.9,13,> 72.8,12.6,50.6,1.04,15.4
COc1ccc(C(O)CNC(=O)c2ccccc2)cc1 (stereo not drawn),,> 100,,> 100,,> 100,,> 100,,> 100,,> 100,,> 100,,> 100,,> 100,,> 100
CN1CCN(c2ccc3nc(-c4cc(C(C)(C)C)c(O)c(C(C)(C)C)c4)[nH]c3c2)CC1,1.55,2.95,8.83,21.8,1.8,4.14,3.26,11.5,1.85,3.43,1.68,3.37,7.23,21.2,2.09,4.31,1.91,3.4,1.82,6.4
COc1ccc2c(c1)CC[C@@H]1[C@@H]2CC[C@@]2(C)[C@H]1CC1(CCCCC1)[C@@H]2O,18.8,36.3,21.6,41.3,18.4,37.5,5.58,26.8,14.1,28.5,13.8,31.4,16.7,32,12.9,32.8,14.9,29.5,16,33
COc1ccc(-c2n[nH]nc2-c2csc3ccccc23)cc1OC,13.3,62.1,2.37,19.3,1.45,15.1,4.52,70.9,4.21,19.4,1.95,15.6,2.96,12.1,3.21,35.5,4.63,48.5,0.922,6.69
C#C[C@]1(O)CC[C@H]2[C@@H]3CC=C4c5sc(N=C(N)N)nc5CC[C@]4(C)[C@H]3CC[C@@]21C,0.338,1.19,1.05,2.33,0.391,1.88,0.865,2.72,1.59,3.1,0.497,1.56,0.274,1.02,1.14,2.66,0.4,1.61,0.842,2.37
O=C1OC(c2ccc(O)c(-c3ccccc3)c2)(c2ccc(O)c(-c3ccccc3)c2)c2c(Cl)c(Cl)c(Cl)c(Cl)c21,,> 100,,> 100,,> 100,,> 100,,> 100,,> 100,,> 100,,> 100,,> 100,,> 100
COc1ccc2[nH]cc(-c3nc(-c4cn(C)c5ccncc45)cs3)c2c1,2.11,3.65,19.4,33.7,1.81,3.65,1.79,3.43,1.88,3.42,1.75,3.24,8.86,21.5,1.87,3.4,1.79,3.22,1.9,3.63
COC(=O)c1ccccc1NC(=O)/C(=N\NC(C)(C)C)C(C#N)c1nc(-c2ccc([N+](=O)[O-])cc2)cs1 (stereo not drawn),,> 100,,> 100,,> 100,,> 100,,> 100,,> 100,,> 100,,> 100,,> 100,,> 100
CCC[C@H](N[C@@H]1CCc2cc(F)cc(F)c2C1)C(=O)Nc1cn(C(C)(C)CNCC(C)(C)C)cn1,13.4,28.2,26.3,> 100,15.6,> 56.7,23.2,> 100,17.8,> 81.1,10.5,26.9,7.41,42.9,10.2,29.3,15.1,33.9,1.47,11.1
CO[C@@H]1[C@@H](OC2OC(C)C(OC3CC(C)(O)C(OC(=O)CC(C)C)C(C)O3)C(N(C)C)C2O)[C@@H](CC=O)C[C@@H](C)C(=O)/C=C/C2O[C@H]2C[C@@H](C)OC(=O)C[C@H]1OC(C)=O (stereo partly drawn),,27.9,,> 100,,30.7,,> 100,,32,,30,,52,,45.6,,34.8,,27
CC(C)(C)c1ccc([I+]c2ccc(C(C)(C)C)cc2)cc1,0.545,2.01,2.31,6.75,1.35,9.17,2.43,6.65,1.78,9.09,1.47,4.09,1.37,3.81,1.35,2.83,1.11,3.14,1.25,3.5
CC1(C)N=C(N)N=C(N)N1c1ccc(F)c(C(F)(F)F)c1,26.7,> 100,10.7,> 100,0.998,> 100,0.31,,1.85,> 100,0.827,> 100,9.84,> 100,> 100,> 100,15.9,> 100,12.4,> 100
O=C1C=C(Nc2ccccc2C(=O)CC(=O)C(=O)Nc2cccc(C(F)(F)F)c2)c2ccccc2C1=O,,28.7,,> 100,,28.9,,> 89.8,,> 78,,31.7,,> 100,,> 91.1,,54.8,,> 94.3
Cn1c(COC(=O)N2CCCCC2)nc2c(N3CCOCC3)nc(-c3ccccc3)nc21,1.39,2.72,2.64,10.5,0.378,1.79,1.48,3.45,1.58,3.04,0.509,1.89,1.37,2.69,1.02,2.27,1.52,2.86,0.492,1.93
CC(C)=CCc1c(O)cc(/C=C/c2cc(O)c3c(c2)C[C@@H]2C(C)(C)[C@H](O)[C@H](O)C[C@@]2(C)O3)cc1O,1.21,6.51,0.264,3.73,0.00718,0.831,0.249,> 10,1.29,4.17,0.548,4.02,1.22,9.57,1.66,> 10,1.58,> 5.26,0.0104,2.6
CC(ONC(=O)c1cc(C(F)(F)F)cc(C(F)(F)F)c1)C(=O)Nc1ccc(Cl)cc1 (stereo not drawn),3.83,13.6,12.9,> 85.8,3.38,16.5,4.68,> 41.3,4.16,17,7.46,25.3,3.35,14.5,8.7,36.5,5.4,37.4,2.77,7.21
CCN(CC)c1ccc2c(c1)Oc1nc(N)c(C#N)c(N)c1C2Sc1ccc(SC)cc1 (stereo not drawn),2.38,4.72,2.16,3.96,1.6,3.65,1.94,3.5,1.96,3.47,1.74,3.47,1.88,3.44,1.54,3.07,2.05,3.91,1.72,3.43
COc1cnc2c(c1)C(=O)c1c-2n(CCCn2ccnc2)c(=O)c2cc(Cl)ccc12,0.293,37.4,0.0403,0.303,< 0.01,,0.0663,> 100,0.382,> 100,0.0282,0.162,0.113,0.557,1.27,> 100,0.611,> 100,0.0726,56.2
